Data taken from patent publication US8449898B2 (priority 2007, dated 2013).
Like-named read-outs stand apart in the source and are kept apart here.

Tests used:
[1] = system: Pseudoperonospora cubensis (the causal agent of cucumber downy mildew); test: Test B: cucumber downy mildew, preventive spray on cucumber seedlings; assay type: in vivo; settings: for pest or weed control at 10 µg/mL: component (b) alone 10 ppm (Compound 1 0 ppm); for pest or weed control at 40 µg/mL: component (b) alone 40 ppm (Compound 1 0 ppm)
[2] = system: Phytophthora infestans (the causal agent of tomato late blight); test: whole plant or invertebrate; assay type: in vivo; settings: for pest or weed control at 0.4 ppm / pest or weed control at 2 ppm / pest or weed control at 10 ppm / pest or weed control at 40 ppm / pest or weed control at 200 ppm / pest or weed control at 1000 ppm / pest or weed control at 5000 ppm / pest or weed control at 0.08 ppm: Phytophthora infestans; for TLB Obsd (disease control rating): Table A
[3] = Pseudoperonospora cubensis, Table D, component (b) alone at 10 ppm, read-out: CDM Obsd
[4] = Pseudoperonospora cubensis, Table D, component (b) alone at 40 ppm, read-out: CDM Obsd
[5] = Pseudoperonospora cubensis, read-out: CDM Obsd
[6] = Pseudoperonospora cubensis, component (b) alone, 10 ppm, read-out: CDM Obsd (observed effect, cucumber downy mildew)
[7] = Pseudoperonospora cubensis, component (b) alone, 40 ppm, read-out: CDM Obsd (observed effect, cucumber downy mildew)
[8] = read-out: TLB Obsd (observed effect, tomato late blight), component (b) alone, 10 ppm
[9] = read-out: TLB Obsd (observed effect, tomato late blight), component (b) alone, 40 ppm
[10] = read-out: TLB Obsd, Table D, component (b) alone at 10 ppm
[11] = read-out: TLB Obsd, Table D, component (b) alone at 40 ppm

## C#CCOc1ccc(CCNC(=O)C(OCC#C)c2ccc(Cl)cc2)cc1OC (stereo not drawn) [mandipropamid]
[1]; Table F, component (b) alone at 0.016 ppm
  CDM Obsd: 33%
[1]; Table F, component (b) alone at 0.08 ppm
  CDM Obsd: 97%
[1]; Table F, component (b) alone at 0.4 ppm
  CDM Obsd: 100%
[1]; Table F, component (b) alone at 2 ppm
  CDM Obsd: 100%
[1]; Table F, component (b) alone at 10 ppm
  CDM Obsd: 100%
[1]; component (b) alone, 0.08 ppm
  CDM Obsd (observed effect, cucumber downy mildew): 86
[1]; component (b) alone, 0.4 ppm
  CDM Obsd (observed effect, cucumber downy mildew): 100
[1]; component (b) alone, 2 ppm
  CDM Obsd (observed effect, cucumber downy mildew): 100
[1]; component (b) alone, 10 ppm
  CDM Obsd (observed effect, cucumber downy mildew): 100
[1]; component (b) alone, 40 ppm
  CDM Obsd (observed effect, cucumber downy mildew): 100
[2]; Table E, component (b) alone at 0.016 ppm
  TLB Obsd: 26%
[2]; Table E, component (b) alone at 0.08 ppm
  TLB Obsd: 33%
[2]; Table E, component (b) alone at 0.4 ppm
  TLB Obsd: 88%
[2]; Table E, component (b) alone at 2 ppm
  TLB Obsd: 100%
[2]; Table E, component (b) alone at 10 ppm
  TLB Obsd: 100%
[2]; component (b) alone, 0.08 ppm
  TLB Obsd (observed effect, tomato late blight): 80
[2]; component (b) alone, 0.4 ppm
  TLB Obsd (observed effect, tomato late blight): 97
[2]; component (b) alone, 2 ppm
  TLB Obsd (observed effect, tomato late blight): 99
[2]; component (b) alone, 10 ppm
  TLB Obsd (observed effect, tomato late blight): 100
[2]; component (b) alone, 40 ppm
  TLB Obsd (observed effect, tomato late blight): 100

## CC(C)CC(C)c1sccc1NC(=O)c1cn(C)nc1C(F)(F)F (stereo not drawn) [penthiopyrad]
[1]; Pseudoperonospora cubensis, Table A, component (b) alone 0.4 ppm, read-out: CDM Obsd (disease control rating)
  pest or weed control at 0.4 ppm: 47%
[1]; Pseudoperonospora cubensis, Table A, component (b) alone 2 ppm, read-out: CDM Obsd (disease control rating)
  pest or weed control at 2 ppm: 47%
[1]; Pseudoperonospora cubensis, Table A, component (b) alone 10 ppm, read-out: CDM Obsd (disease control rating)
  pest or weed control at 10 ppm: 47%
[1]; Pseudoperonospora cubensis, Table A, component (b) alone 40 ppm, read-out: CDM Obsd (disease control rating)
  pest or weed control at 40 ppm: 47%
[1]; Pseudoperonospora cubensis, Table A, component (b) alone 200 ppm, read-out: CDM Obsd (disease control rating)
  pest or weed control at 200 ppm: 47%
[1]; Pseudoperonospora cubensis, Table G, component (b) alone at 0.4 ppm, read-out: CDM Obsd
  pest or weed control at 0.4 ppm: 43%
[1]; Pseudoperonospora cubensis, Table G, component (b) alone at 2 ppm, read-out: CDM Obsd
  pest or weed control at 2 ppm: 33%
[1]; Pseudoperonospora cubensis, Table G, component (b) alone at 10 ppm, read-out: CDM Obsd
  pest or weed control at 10 ppm: 26%
[1]; Pseudoperonospora cubensis, Table G, component (b) alone at 40 ppm, read-out: CDM Obsd
  pest or weed control at 40 ppm: 26%
[1]; Pseudoperonospora cubensis, Table G, component (b) alone at 200 ppm, read-out: CDM Obsd
  pest or weed control at 200 ppm: 47%
[1]; Pseudoperonospora cubensis, component (b) alone, 0.4 ppm, read-out: CDM Obsd
  pest or weed control at 0.4 ppm: 0%
[1]; Pseudoperonospora cubensis, component (b) alone, 2 ppm, read-out: CDM Obsd
  pest or weed control at 2 ppm: 0%
[1]; Pseudoperonospora cubensis, component (b) alone, 10 ppm, read-out: CDM Obsd
  pest or weed control at 10 ppm: 0%
[1]; Pseudoperonospora cubensis, component (b) alone, 40 ppm, read-out: CDM Obsd
  pest or weed control at 40 ppm: 0%
[1]; Pseudoperonospora cubensis, component (b) alone, 200 ppm, read-out: CDM Obsd
  pest or weed control at 200 ppm: 16%
[2]; read-out: TLB Obsd (disease control rating), Table A, component (b) alone 0.4 ppm
  pest or weed control at 0.4 ppm: 0%
[2]; read-out: TLB Obsd (disease control rating), Table A, component (b) alone 2 ppm
  pest or weed control at 2 ppm: 0%
[2]; read-out: TLB Obsd (disease control rating), Table A, component (b) alone 10 ppm
  pest or weed control at 10 ppm: 9%
[2]; read-out: TLB Obsd (disease control rating), Table A, component (b) alone 40 ppm
  pest or weed control at 40 ppm: 17%
[2]; read-out: TLB Obsd (disease control rating), Table A, component (b) alone 200 ppm
  pest or weed control at 200 ppm: 17%
[2]; read-out: TLB Obsd, component (b) alone, 0.4 ppm
  pest or weed control at 0.4 ppm: 0%
[2]; read-out: TLB Obsd, component (b) alone, 2 ppm
  pest or weed control at 2 ppm: 22%
[2]; read-out: TLB Obsd, component (b) alone, 10 ppm
  pest or weed control at 10 ppm: 7%
[2]; read-out: TLB Obsd, component (b) alone, 40 ppm
  pest or weed control at 40 ppm: 15%
[2]; read-out: TLB Obsd, component (b) alone, 200 ppm
  pest or weed control at 200 ppm: 7%

## CCCOC(=O)NCCCN(C)C [propamocarb]
[1]; [3]
  pest or weed control at 10 ppm: 47%
[1]; [4]
  pest or weed control at 40 ppm: 47%
[1]; Pseudoperonospora cubensis, Table D, component (b) alone at 200 ppm, read-out: CDM Obsd
  pest or weed control at 200 ppm: 58%
[1]; Pseudoperonospora cubensis, Table D, component (b) alone at 1000 ppm, read-out: CDM Obsd
  pest or weed control at 1000 ppm: 76%
[1]; Pseudoperonospora cubensis, Table D, component (b) alone at 5000 ppm, read-out: CDM Obsd
  pest or weed control at 5000 ppm: 98%
[1]; [5]
  pest or weed control at 10 µg/mL: 47%
  pest or weed control at 40 µg/mL: 47%
[1]; Pseudoperonospora cubensis, component (b) alone 200 ppm (Compound 1 0 ppm), read-out: CDM Obsd
  pest or weed control at 200 µg/mL: 94%
[1]; Pseudoperonospora cubensis, component (b) alone 1000 ppm (Compound 1 0 ppm), read-out: CDM Obsd
  pest or weed control at 1000 µg/mL: 100%
[1]; Pseudoperonospora cubensis, component (b) alone 5000 ppm (Compound 1 0 ppm), read-out: CDM Obsd
  pest or weed control at 5000 µg/mL: 100%
[1]; [6]
  pest or weed control at 10 ppm: 46%
[1]; [7]
  pest or weed control at 40 ppm: 31%
[1]; Pseudoperonospora cubensis, component (b) alone, 200 ppm, read-out: CDM Obsd (observed effect, cucumber downy mildew)
  pest or weed control at 200 ppm: 86%
[1]; Pseudoperonospora cubensis, component (b) alone, 1000 ppm, read-out: CDM Obsd (observed effect, cucumber downy mildew)
  pest or weed control at 1000 ppm: 99%
[1]; Pseudoperonospora cubensis, component (b) alone, 5000 ppm, read-out: CDM Obsd (observed effect, cucumber downy mildew)
  pest or weed control at 5000 ppm: 100%
[2]; [8]
  pest or weed control at 10 ppm: 0%
[2]; [9]
  pest or weed control at 40 ppm: 0%
[2]; read-out: TLB Obsd (observed effect, tomato late blight), component (b) alone, 200 ppm
  pest or weed control at 200 ppm: 0%
[2]; read-out: TLB Obsd (observed effect, tomato late blight), component (b) alone, 1000 ppm
  pest or weed control at 1000 ppm: 38%
[2]; read-out: TLB Obsd (observed effect, tomato late blight), component (b) alone, 5000 ppm
  pest or weed control at 5000 ppm: 92%
[2]; [10]
  pest or weed control at 10 ppm: 6%
[2]; [11]
  pest or weed control at 40 ppm: 6%
[2]; read-out: TLB Obsd, Table D, component (b) alone at 200 ppm
  pest or weed control at 200 ppm: 19%
[2]; read-out: TLB Obsd, Table D, component (b) alone at 1000 ppm
  pest or weed control at 1000 ppm: 57%
[2]; read-out: TLB Obsd, Table D, component (b) alone at 5000 ppm
  pest or weed control at 5000 ppm: 77%

## CCCOc1nc2ccc(I)cc2c(=O)n1CCC [proquinazid]
[1]; Table A, component (b) alone 0.4 ppm
  CDM Obsd (disease control rating): 47%
[1]; Table A, component (b) alone 2 ppm
  CDM Obsd (disease control rating): 47%
[1]; Table A, component (b) alone 10 ppm
  CDM Obsd (disease control rating): 47%
[1]; Table A, component (b) alone 40 ppm
  CDM Obsd (disease control rating): 47%
[1]; Table A, component (b) alone 200 ppm
  CDM Obsd (disease control rating): 47%
[1]; Table G, component (b) alone at 0.4 ppm
  CDM Obsd: 26%
[1]; Table G, component (b) alone at 2 ppm
  CDM Obsd: 26%
[1]; Table G, component (b) alone at 10 ppm
  CDM Obsd: 26%
[1]; Table G, component (b) alone at 40 ppm
  CDM Obsd: 26%
[1]; Table G, component (b) alone at 200 ppm
  CDM Obsd: 26%
[1]; component (b) alone, 0.04 ppm
  CDM Obsd: 0%
[1]; component (b) alone, 2 ppm
  CDM Obsd: 0%
[1]; component (b) alone, 10 ppm
  CDM Obsd: 0%
[1]; component (b) alone, 40 ppm
  CDM Obsd: 0%
[1]; component (b) alone, 200 ppm
  CDM Obsd: 0%
[2]; component (b) alone 0.4 ppm
  TLB Obsd (disease control rating): 0%
[2]; component (b) alone 2 ppm
  TLB Obsd (disease control rating): 0%
[2]; component (b) alone 10 ppm
  TLB Obsd (disease control rating): 0%
[2]; component (b) alone 40 ppm
  TLB Obsd (disease control rating): 24%
[2]; component (b) alone 200 ppm
  TLB Obsd (disease control rating): 0%
[2]; component (b) alone, 0.04 ppm
  TLB Obsd: 17%
[2]; component (b) alone, 2 ppm
  TLB Obsd: 0%
[2]; component (b) alone, 10 ppm
  TLB Obsd: 8%
[2]; component (b) alone, 40 ppm
  TLB Obsd: 8%
[2]; component (b) alone, 200 ppm
  TLB Obsd: 17%

## COC(=O)N(OC)c1ccccc1COc1ccn(-c2ccc(Cl)cc2)n1 [pyraclostrobin]
[1]; Pseudoperonospora cubensis, Table D, component (b) alone at 0.08 ppm, read-out: CDM Obsd
  pest or weed control at 0.08 ppm: 47%
[1]; Pseudoperonospora cubensis, Table D, component (b) alone at 0.4 ppm, read-out: CDM Obsd
  pest or weed control at 0.4 ppm: 47%
[1]; Pseudoperonospora cubensis, Table D, component (b) alone at 2 ppm, read-out: CDM Obsd
  pest or weed control at 2 ppm: 98%
[1]; [3]
  pest or weed control at 10 ppm: 100%
[1]; [4]
  pest or weed control at 40 ppm: 100%
[1]; Pseudoperonospora cubensis, component (b) alone 0.08 ppm (Compound 1 0 ppm), read-out: CDM Obsd
  pest or weed control at 0.08 µg/mL: 47%
[1]; Pseudoperonospora cubensis, component (b) alone 0.4 ppm (Compound 1 0 ppm), read-out: CDM Obsd
  pest or weed control at 0.4 µg/mL: 47%
[1]; Pseudoperonospora cubensis, component (b) alone 2 ppm (Compound 1 0 ppm), read-out: CDM Obsd
  pest or weed control at 2 µg/mL: 57%
[1]; [5]
  pest or weed control at 10 µg/mL: 100%
  pest or weed control at 40 µg/mL: 100%
[1]; Pseudoperonospora cubensis, component (b) alone, 0.08 ppm, read-out: CDM Obsd (observed effect, cucumber downy mildew)
  pest or weed control at 0.08 ppm: 0%
[1]; Pseudoperonospora cubensis, component (b) alone, 0.4 ppm, read-out: CDM Obsd (observed effect, cucumber downy mildew)
  pest or weed control at 0.4 ppm: 0%
[1]; Pseudoperonospora cubensis, component (b) alone, 2 ppm, read-out: CDM Obsd (observed effect, cucumber downy mildew)
  pest or weed control at 2 ppm: 68%
[1]; [6]
  pest or weed control at 10 ppm: 100%
[1]; [7]
  pest or weed control at 40 ppm: 100%
[2]; read-out: TLB Obsd (observed effect, tomato late blight), component (b) alone, 0.08 ppm
  pest or weed control at 0.08 ppm: 15%
[2]; read-out: TLB Obsd (observed effect, tomato late blight), component (b) alone, 0.4 ppm
  pest or weed control at 0.4 ppm: 35%
[2]; read-out: TLB Obsd (observed effect, tomato late blight), component (b) alone, 2 ppm
  pest or weed control at 2 ppm: 63%
[2]; [8]
  pest or weed control at 10 ppm: 90%
[2]; [9]
  pest or weed control at 40 ppm: 94%
[2]; read-out: TLB Obsd, Table D, component (b) alone at 0.08 ppm
  pest or weed control at 0.08 ppm: 26%
[2]; read-out: TLB Obsd, Table D, component (b) alone at 0.4 ppm
  pest or weed control at 0.4 ppm: 40%
[2]; read-out: TLB Obsd, Table D, component (b) alone at 2 ppm
  pest or weed control at 2 ppm: 78%
[2]; [10]
  pest or weed control at 10 ppm: 85%
[2]; [11]
  pest or weed control at 40 ppm: 95%
